The values that follow come from US20080248511A1, “METHODS TO QUENCH LIGHT FROM OPTICAL REACTIONS” (priority 2007, published 2008).

Test [1] addresses T1, firefly luciferase (Photinus pyralis, UniProt P08659). Nature of the test: biochemical. As to conditions: 0.5% detergent in Luciferase Assay Reagent; for remaining activity at 0.5 %: read-out: Retained Firefly Luciferase Luminescence (%). The method, then:
(§1) The retained luminescence for each luciferase was calculated by dividing the luminescence in the presence of the detergent by the luminescence in the absence of the test detergent. The selectivity value for each of the test detergents was determined by dividing the retained firefly luciferase luminescence by the retained Renilla luciferase luminescence.
(§2) A set of detergents (Table 2; Sigma-Aldrich) was added at 0.5% (from a 5% or 10% stock solution) to either Luciferase Assay Reagent (Promega) or Renilla Luciferase Assay Reagent (Promega) and allowed to equilibrate at room temperature.
(§3) The firefly luciferase and Renilla luciferase enzymes were diluted as follows. Firefly luciferase was diluted to 14 ng/ml in Phosphate Buffered Saline (PBS) containing 0.1% of the protein carrier Prionex® (Pentapharm). Renilla luciferase was diluted to 10 ng/ml in 1× Renilla Luciferase Lysis Buffer (Promega) containing 0.1% Prionex®. The Renilla Luciferase Lysis Buffer […] detergent micelles when using the Renilla Luciferase Assay Reagent. In the absence of other detergents, this prevents sequestering of coelenterazine which inhibits Renilla luciferase-mediated luminescence.
(§4) The luciferase reactions were initiated by adding 40 μl of either the firefly or Renilla luciferase enzyme solution to 200 μl of the appropriate reagent solution (firefly luciferase enzyme solution+firefly luciferase reagent solution or Renilla luciferase enzyme solution+Renilla luciferase reagent solution, respectively). The reactions were performed in an opaque white, 96-well plate and luminescence was measured for 0.5 seconds per well using a Turner BioSystems Veritas™ Microplate luminometer. The retained firefly luciferase and Renilla luciferase luminescence, as well as the selectivity values for each detergent, were calculated (Table 2).

In test [2] the target is T2, Renilla luciferase (Renilla reniformis, UniProt P27652).
T2 sequence (P27652 1-311): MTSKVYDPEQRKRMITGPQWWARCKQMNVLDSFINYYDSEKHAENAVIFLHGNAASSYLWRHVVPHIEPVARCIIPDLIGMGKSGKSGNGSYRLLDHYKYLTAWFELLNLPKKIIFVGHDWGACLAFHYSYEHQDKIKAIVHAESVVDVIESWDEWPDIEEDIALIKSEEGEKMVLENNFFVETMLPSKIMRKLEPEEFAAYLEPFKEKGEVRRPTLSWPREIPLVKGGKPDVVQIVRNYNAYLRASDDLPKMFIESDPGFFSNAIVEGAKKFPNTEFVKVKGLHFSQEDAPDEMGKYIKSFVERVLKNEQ
Nature of the test: biochemical. The class given is biochemical. As to conditions: for remaining activity at 0.5 %: read-out: Retained Renilla Luciferase Luminescence (%). As for the experimental part:
as §1, §2, §3, §4

The target in test [3] is T1, firefly luciferase. Nature of the test: Detergent titration with Tergitol NP-9, digitonin or no lysing agent, firefly luciferase (Example 4). It counts as biochemical. Conditions: read-out: Relative Firefly Luc Intensity; for remaining activity at 0.0005 %: 0.0005% detergent; for remaining activity at 0.005 %: 0.0050% detergent; for remaining activity at 0.05 %: 0.0500% detergent. The method, then: For measurement of firefly luciferase-mediated luminescence, a solution containing 110 mM HEPES pH 7.5, 8 mM MgSO4, 0.05% gelatin, 7.35 ng/ml firefly luciferase (QuantiLum® Luciferase; Promega) and the content of the Steady-Glo Luciferase Substrate (Promega) at the equivalent of 1×, As in the Renilla luciferase reactions, reactions contained either no lysing agent, 0.5% Tergitol NP-9 or 20 μg/ml digitonin. The same detergents were titrated as described above and firefly luciferase-mediated luminescence was measured.

The target of test [4] is T2, Renilla luciferase. Nature of the test: Detergent titration with Tergitol NP-9, digitonin or no lysing agent, Renilla luciferase (Example 4). The class given is biochemical. Conditions: for remaining activity at 0.0005 % / remaining activity at 0.005 % / remaining activity at 0.05 %: read-out: Relative Renilla Luc Intensity. The method, then:
Renilla luciferase-mediated luminescence was measured from samples containing 9.6 mM phosphate buffer pH 6.8, 2.7 mM KCl, 137 mM NaCl (in PBS), 0.1% gelatin, 75 nM coelentrazine (Promega) and 10.2 ng/ml Renilla luciferase. Reactions contained either no lysing agent, 0.5% Tergitol NP-9 or 20 μg/ml digitonin. The detergents to be tested were titrated to 0.05%, 0.005% or 0.0005% in the reactions prior to the addition of the Renilla luciferase. Renilla luciferase-mediated luminescence was measured as described herein.

Where [5] appears, read: 0.5% detergent in Renilla Luciferase Assay Reagent.
[6] abbreviates: retained firefly / retained Renilla, 0.5% detergent.
Where [7] appears, read: 0.0500% (w:v) detergent, Terg (0.5% Tergitol NP-9).
Where [8] appears, read: 0.0500% detergent, Dig (20 μg/ml digitonin).
Where [9] appears, read: 0.0500% detergent, Water (no lysing agent).

Like-named read-outs stand apart in the source and are kept apart here.

T1 sequence (P08659 whole entry): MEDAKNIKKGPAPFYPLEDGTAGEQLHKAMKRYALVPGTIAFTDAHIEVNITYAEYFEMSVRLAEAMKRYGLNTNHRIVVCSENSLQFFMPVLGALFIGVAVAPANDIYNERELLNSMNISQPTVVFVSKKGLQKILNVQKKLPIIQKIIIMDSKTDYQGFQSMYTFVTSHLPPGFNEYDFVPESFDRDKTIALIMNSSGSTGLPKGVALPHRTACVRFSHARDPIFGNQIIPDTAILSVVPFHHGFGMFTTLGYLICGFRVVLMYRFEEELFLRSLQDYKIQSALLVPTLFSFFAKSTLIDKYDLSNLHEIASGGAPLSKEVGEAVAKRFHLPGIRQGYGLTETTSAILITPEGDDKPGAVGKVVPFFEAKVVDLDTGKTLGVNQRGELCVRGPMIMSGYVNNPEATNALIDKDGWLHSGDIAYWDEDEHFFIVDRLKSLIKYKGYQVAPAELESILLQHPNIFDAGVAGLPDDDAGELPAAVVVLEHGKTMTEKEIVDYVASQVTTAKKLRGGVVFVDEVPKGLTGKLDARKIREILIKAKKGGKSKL

Turning to `CCCCCCCCCCCCCC[N+](C)(C)Cc1ccccc1.[Br-]` [Benzyldimethyltetradecylammonium bromide], the remaining activity at 0.5 % at firefly luciferase [1] was determined as 0.21%; at Renilla luciferase [2] (setting [5]) it was 0.13%. Moreover, the “Selectivity Value” at Renilla luciferase [2] (setting [6]) is reported as 1.6. Also, the remaining activity at 0.0005 % turned out to be 155% on firefly luciferase [3] (Dig); 98% on firefly luciferase [3] (Terg); 126% at firefly luciferase [3] (Water); 14% at Renilla luciferase [4] (0.0005% detergent, Dig); 96% at Renilla luciferase [4] (0.0005% detergent, Terg); 12% at Renilla luciferase [4] (0.0005% detergent, Water). Also, the remaining activity at 0.005 % at firefly luciferase [3] (Dig) was 128%; at firefly luciferase [3] (Terg) it was 93%; at firefly luciferase [3] (Water), 106%; at Renilla luciferase [4] (0.0050% detergent, Dig), 0.03%; on Renilla luciferase [4] (0.0050% detergent, Terg), 70%; at Renilla luciferase [4] (0.0050% detergent, Water) it was 0.01%. For the same compound, the remaining activity at 0.05 % is 1.4% on firefly luciferase [3] (Dig (20 μg/ml digitonin)); 45% on firefly luciferase [3] (Terg (0.5% Tergitol NP-9)); 10% on firefly luciferase [3] (Water (no lysing agent)); 5% at Renilla luciferase [4] (setting [7]); 0.02% on Renilla luciferase [4] (setting [8]); 0.02% on Renilla luciferase [4] (setting [9]). For the same compound, the “Selective Inhibition (Ff Luc Inh/Ren Luc Inh)” value at Renilla luciferase [4] (0.0005% detergent, Dig) came to 11.0; at Renilla luciferase [4] (0.0005% detergent, Terg) it was 1.0; on Renilla luciferase [4] (0.0005% detergent, Water), 10.2; on Renilla luciferase [4] (0.0050% detergent, Dig), 5067; on Renilla luciferase [4] (0.0050% detergent, Terg) it was 1.3; on Renilla luciferase [4] (0.0050% detergent, Water), 7068. The “Selective Inhibition (Ff Luc Inh/Ren Luc Inh)” value was determined as 60 at Renilla luciferase [4] (0.0500% detergent, Dig); 10 on Renilla luciferase [4] (0.0500% detergent, Terg); 451 on Renilla luciferase [4] (0.0500% detergent, Water).
Regarding `CCCCCCCCCCCC[N+](C)(C)C.[Br-]` [Dodecyltrimethylammonium bromide], the remaining activity at 0.5 % was determined as 42.1% on firefly luciferase [1] and 1.74% at Renilla luciferase [2] (setting [5]). Besides, at Renilla luciferase [2] (setting [6]), the “Selectivity Value” is reported as 24.2. Besides, the remaining activity at 0.0005 % on firefly luciferase [3] (Dig) was 103%; at firefly luciferase [3] (Terg), 96%; on firefly luciferase [3] (Water) it was 107%; on Renilla luciferase [4] (0.0005% detergent, Dig), 96%; at Renilla luciferase [4] (0.0005% detergent, Terg), 98%; at Renilla luciferase [4] (0.0005% detergent, Water) it was 95%. Further, the remaining activity at 0.005 % at firefly luciferase [3] (Dig) was 128%; at firefly luciferase [3] (Terg), 93%; on firefly luciferase [3] (Water), 128%; on Renilla luciferase [4] (0.0050% detergent, Dig), 55%; on Renilla luciferase [4] (0.0050% detergent, Terg) it was 76%; on Renilla luciferase [4] (0.0050% detergent, Water), 51%. The remaining activity at 0.05 % was 184% on firefly luciferase [3] (Dig (20 μg/ml digitonin)); 71% on firefly luciferase [3] (Terg (0.5% Tergitol NP-9)); 197% on firefly luciferase [3] (Water (no lysing agent)); 9% at Renilla luciferase [4] (setting [7]); 2% at Renilla luciferase [4] (setting [8]); 2% at Renilla luciferase [4] (setting [9]). The “Selective Inhibition (Ff Luc Inh/Ren Luc Inh)” value at Renilla luciferase [4] (0.0005% detergent, Dig) turned out to be 1.1; at Renilla luciferase [4] (0.0005% detergent, Terg) it was 1.0; at Renilla luciferase [4] (0.0005% detergent, Water), 1.1; on Renilla luciferase [4] (0.0050% detergent, Dig), 2.3; on Renilla luciferase [4] (0.0050% detergent, Terg), 1.2; at Renilla luciferase [4] (0.0050% detergent, Water) it was 2.5. Moreover, the “Selective Inhibition (Ff Luc Inh/Ren Luc Inh)” value came to 98 on Renilla luciferase [4] (0.0500% detergent, Dig); 8 at Renilla luciferase [4] (0.0500% detergent, Terg); 110 at Renilla luciferase [4] (0.0500% detergent, Water).
Regarding `CCCCC[N+](CCCCC)(CCCCC)CCCCC.[Br-]` [Tetrapentylammonium bromide], the figures for the remaining activity at 0.5 % on firefly luciferase [1] and on Renilla luciferase [2] (setting [5]) were 80.9% and 37%, respectively. The “Selectivity Value” at Renilla luciferase [2] (setting [6]) is recorded as 2.2. Further, the remaining activity at 0.0005 % on firefly luciferase [3] (Dig) worked out at 100%; at firefly luciferase [3] (Terg), 97%; on firefly luciferase [3] (Water), 98%; on Renilla luciferase [4] (0.0005% detergent, Dig), 99%; on Renilla luciferase [4] (0.0005% detergent, Terg), 96%; at Renilla luciferase [4] (0.0005% detergent, Water), 98%. Besides, the remaining activity at 0.005 % at firefly luciferase [3] (Dig) worked out at 104%; at firefly luciferase [3] (Terg), 96%; on firefly luciferase [3] (Water) it was 101%; at Renilla luciferase [4] (0.0050% detergent, Dig) it was 87%; at Renilla luciferase [4] (0.0050% detergent, Terg) it was 81%; at Renilla luciferase [4] (0.0050% detergent, Water), 83%. The remaining activity at 0.05 % on firefly luciferase [3] (Dig (20 μg/ml digitonin)) came to 117%; on firefly luciferase [3] (Terg (0.5% Tergitol NP-9)) it was 95%; on firefly luciferase [3] (Water (no lysing agent)) it was 110%; on Renilla luciferase [4] (setting [7]), 38%; on Renilla luciferase [4] (setting [8]) it was 40%; on Renilla luciferase [4] (setting [9]), 37%. Besides, the “Selective Inhibition (Ff Luc Inh/Ren Luc Inh)” value on Renilla luciferase [4] (0.0005% detergent, Dig) came to 1.0; at Renilla luciferase [4] (0.0005% detergent, Terg), 1.0; at Renilla luciferase [4] (0.0005% detergent, Water) it was 1.0; at Renilla luciferase [4] (0.0050% detergent, Dig), 1.2; at Renilla luciferase [4] (0.0050% detergent, Terg), 1.2; at Renilla luciferase [4] (0.0050% detergent, Water) it was 1.2. Moreover, the “Selective Inhibition (Ff Luc Inh/Ren Luc Inh)” value on Renilla luciferase [4] (0.0500% detergent, Dig) is given as 2.9; at Renilla luciferase [4] (0.0500% detergent, Terg), 2.5; on Renilla luciferase [4] (0.0500% detergent, Water) it was 3.0.
As for `[Br-].c1ccc([P+](c2ccccc2)(c2ccccc2)c2ccccc2)cc1` [Tetraphenylphosphonium bromide], the results for the remaining activity at 0.5 % on firefly luciferase [1] and at Renilla luciferase [2] (setting [5]) were 90.9% and 24.5%, respectively. Moreover, on Renilla luciferase [2] (setting [6]), the “Selectivity Value” came out at 3.7.
For `CCCCCCCCCC[N+](C)(C)CCCS(=O)(=O)[O-]` [Zwittergent 3-10], at firefly luciferase [1], the “Retained Firefly Luciferase Luminescence (%)” value is 73.92%. The “Retained Renilla Luciferase Luminescence (%)” value on Renilla luciferase [2] (setting [5]) is on record as 33.45%. Moreover, the “Selectivity Value” at Renilla luciferase [2] (setting [6]) is reported as 2.2.
In the case of Benzalkonium, the “Retained Firefly Luciferase Luminescence (%)” value on firefly luciferase [1] was determined as 0.20%. Besides, the “Retained Renilla Luciferase Luminescence (%)” value at Renilla luciferase [2] (setting [5]) is given as 0.04%. In addition, the “Selectivity Value” at Renilla luciferase [2] (setting [6]) is given as 5.0.
The corresponding values for Decamthonium bromide are 85.42%, 76.68% and 1.1.
Sodium deoxycholate: the “Retained Firefly Luciferase Luminescence (%)” value at firefly luciferase [1] is listed as 39.75%. Moreover, on Renilla luciferase [2] (setting [5]), the “Retained Renilla Luciferase Luminescence (%)” value amounted to 60.64%. In addition, on Renilla luciferase [2] (setting [6]), the “Selectivity Value” turned out to be 0.7.
As to Tergitol NP-9, the “Retained Firefly Luciferase Luminescence (%)” value on firefly luciferase [1] stood at 79.16%. Also, at Renilla luciferase [2], the “Retained Renilla Luciferase Luminescence (%)” value is 27.14% and the “Selectivity Value” is listed as 2.9.
As to s-Acetylthiochloline bromide, the “Retained Firefly Luciferase Luminescence (%)” value at firefly luciferase [1] is recorded as 70.97%. In addition, on Renilla luciferase [2] (setting [5]), the “Retained Renilla Luciferase Luminescence (%)” value is on record as 90.65%. Further, the “Selectivity Value” on Renilla luciferase [2] (setting [6]) is reported as 0.8.
